Experimental data from the supplement of paper PMC10307832.

Key:
Test in all cases: relative viability (nuclei count vs DMSO), 5 days (fraction); higher = more cells survive
HCC-44 = tested on: HCC-44
Procedure, shortened: (§1)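 Values are medians from duplicate plates. Each reflects relative viability, defined as the nuclei count of treated wells over that of vehicle wells. Lung cancer cell lines in 1536-well plates were pin-tool dosed one day after seeding with one drug alone or with a fixed anchor-drug dose plus five library-drug doses (not always all listed) in √10 steps, then fixed, stained and imaged at 4× after 5 days.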

HCC-78 = tested on: HCC-78
Procedure, shortened: as §1

NCI-H1623 = tested on: NCI-H1623
Procedure, shortened: as §1

NCI-H1648 = tested on: NCI-H1648
Procedure, shortened: as §1

NCI-H2087 = tested on: NCI-H2087
Procedure, shortened: as §1

NCI-H322M = tested on: NCI-H322M
Procedure, shortened: as §1

A549 = tested on: A549
Procedure, shortened: as §1

Calu-6 = tested on: Calu-6
Procedure, shortened: as §1

EBC-1 = tested on: EBC-1
Procedure, shortened: as §1

IA-LM = tested on: IA-LM
Procedure, shortened: as §1

NCI-H1299 = tested on: NCI-H1299
Procedure, shortened: as §1

NCI-H1563 = tested on: NCI-H1563
Procedure, shortened: as §1

NCI-H1703 = tested on: NCI-H1703
Procedure, shortened: as §1

SMILES: Cc1csc(=NC2CCCCC2)n1/N=C/c1ccc(O)c(O)c1O [MIM1] + Cc1cc(Nc2cc(N3CCN(C)CC3)nc(Sc3ccc(NC(=O)C4CC4)cc3)n2)n[nH]1 [Tozasertib] (partner 0.1 µM)
- relative viability (HCC-44; first compound 0.2 µM): 0.962
- relative viability (HCC-44; first compound 0.6325 µM): 1.1
- relative viability (HCC-44; first compound 2 µM): 0.387
- relative viability (HCC-44; first compound 6.325 µM): 0.584
- relative viability (HCC-44; first compound 20 µM): 0.184
- relative viability (HCC-78; first compound 0.2 µM): 0.461
- relative viability (HCC-78; first compound 0.6325 µM): 0.288
- relative viability (HCC-78; first compound 2 µM): 0.454
- relative viability (HCC-78; first compound 6.325 µM): 0.39
- relative viability (HCC-78; first compound 20 µM): 0.337
- relative viability (NCI-H1623; first compound 0.2 µM): 0.454
- relative viability (NCI-H1623; first compound 0.6325 µM): 0.402
- relative viability (NCI-H1623; first compound 2 µM): 0.43
- relative viability (NCI-H1623; first compound 6.325 µM): 0.339
- relative viability (NCI-H1623; first compound 20 µM): 0.352
- relative viability (NCI-H1648; first compound 0.2 µM): 0.371
- relative viability (NCI-H1648; first compound 0.6325 µM): 0.369
- relative viability (NCI-H1648; first compound 2 µM): 0.374
- relative viability (NCI-H1648; first compound 6.325 µM): 0.326
- relative viability (NCI-H1648; first compound 20 µM): 0.172
- relative viability (NCI-H2087; first compound 0.2 µM): 0.26
- relative viability (NCI-H2087; first compound 0.6325 µM): 0.284
- relative viability (NCI-H2087; first compound 2 µM): 0.249
- relative viability (NCI-H2087; first compound 6.325 µM): 0.22
- relative viability (NCI-H2087; first compound 20 µM): 0.2
- relative viability (NCI-H322M; first compound 0.2 µM): 0.497
- relative viability (NCI-H322M; first compound 0.6325 µM): 0.456
- relative viability (NCI-H322M; first compound 2 µM): 0.513
- relative viability (NCI-H322M; first compound 6.325 µM): 0.447
- relative viability (NCI-H322M; first compound 20 µM): 0.26

SMILES: Cc1cn(-c2cc(NC(=O)c3ccc(C)c(Nc4nccc(-c5cccnc5)n4)c3)cc(C(F)(F)F)c2)cn1 [Nilotinib] + COc1cc2c(Oc3ccc(NC(=O)C4(C(=O)Nc5ccc(F)cc5)CC4)cc3F)ccnc2cc1OCCCN1CCOCC1 [Foretinib] (partner 0.25 µM)
- relative viability (A549; first compound 0.001 µM): 1.03
- relative viability (A549; first compound 0.01 µM): 1.15
- relative viability (A549; first compound 0.1 µM): 0.95
- relative viability (Calu-6; first compound 0.001 µM): 0.726
- relative viability (Calu-6; first compound 0.003162 µM): 0.897
- relative viability (Calu-6; first compound 0.01 µM): 0.934
- relative viability (Calu-6; first compound 0.03162 µM): 0.644
- relative viability (Calu-6; first compound 0.1 µM): 0.801
- relative viability (EBC-1; first compound 0.001 µM): 0.0869
- relative viability (EBC-1; first compound 0.003162 µM): 0.101
- relative viability (EBC-1; first compound 0.01 µM): 0.105
- relative viability (EBC-1; first compound 0.1 µM): 0.112
- relative viability (HCC-78; first compound 0.001 µM): 0.636
- relative viability (HCC-78; first compound 0.003162 µM): 0.65
- relative viability (HCC-78; first compound 0.01 µM): 0.719
- relative viability (HCC-78; first compound 0.03162 µM): 0.577
- relative viability (HCC-78; first compound 0.1 µM): 0.59
- relative viability (IA-LM; first compound 0.001 µM): 1.14
- relative viability (IA-LM; first compound 0.003162 µM): 1.23
- relative viability (IA-LM; first compound 0.01 µM): 1.33
- relative viability (IA-LM; first compound 0.1 µM): 1.17
- relative viability (NCI-H1299; first compound 0.001 µM): 1.11
- relative viability (NCI-H1299; first compound 0.01 µM): 1.17
- relative viability (NCI-H1299; first compound 0.03162 µM): 1.19
- relative viability (NCI-H1299; first compound 0.1 µM): 1.07
- relative viability (NCI-H1563; first compound 0.001 µM): 0.933
- relative viability (NCI-H1563; first compound 0.003162 µM): 0.896
- relative viability (NCI-H1563; first compound 0.01 µM): 0.875
- relative viability (NCI-H1563; first compound 0.03162 µM): 0.852
- relative viability (NCI-H1563; first compound 0.1 µM): 0.891
- relative viability (NCI-H1623; first compound 0.001 µM): 0.789
- relative viability (NCI-H1623; first compound 0.003162 µM): 0.815
- relative viability (NCI-H1623; first compound 0.01 µM): 0.873
- relative viability (NCI-H1623; first compound 0.03162 µM): 0.667
- relative viability (NCI-H1623; first compound 0.1 µM): 0.791
- relative viability (NCI-H1703; first compound 0.001 µM): 0.337
- relative viability (NCI-H1703; first compound 0.1 µM): 0.409
- relative viability (NCI-H2087; first compound 0.001 µM): 1.03
- relative viability (NCI-H2087; first compound 0.003162 µM): 1.16
- relative viability (NCI-H2087; first compound 0.01 µM): 1.27
- relative viability (NCI-H2087; first compound 0.03162 µM): 0.83
- relative viability (NCI-H2087; first compound 0.1 µM): 0.761
- relative viability (NCI-H322M; first compound 0.001 µM): 1.01
- relative viability (NCI-H322M; first compound 0.003162 µM): 0.987
- relative viability (NCI-H322M; first compound 0.01 µM): 1.05
- relative viability (NCI-H322M; first compound 0.03162 µM): 0.956
- relative viability (NCI-H322M; first compound 0.1 µM): 1.07

SMILES: Cc1cn(-c2cc(NC(=O)c3ccc(C)c(Nc4nccc(-c5cccnc5)n4)c3)cc(C(F)(F)F)c2)cn1 [Nilotinib] + Cc1cc(Nc2cc(N3CCN(C)CC3)nc(Sc3ccc(NC(=O)C4CC4)cc3)n2)n[nH]1 [Tozasertib] (partner 0.1 µM)
- relative viability (HCC-44; first compound 0.001 µM): 0.615
- relative viability (HCC-44; first compound 0.003162 µM): 0.842
- relative viability (HCC-44; first compound 0.01 µM): 0.948
- relative viability (HCC-44; first compound 0.03162 µM): 0.621
- relative viability (HCC-44; first compound 0.1 µM): 0.487
- relative viability (HCC-78; first compound 0.001 µM): 0.408
- relative viability (HCC-78; first compound 0.003162 µM): 0.373
- relative viability (HCC-78; first compound 0.01 µM): 0.479
- relative viability (HCC-78; first compound 0.03162 µM): 0.331
- relative viability (HCC-78; first compound 0.1 µM): 0.28
- relative viability (NCI-H1623; first compound 0.001 µM): 0.415
- relative viability (NCI-H1623; first compound 0.003162 µM): 0.528
- relative viability (NCI-H1623; first compound 0.01 µM): 0.457
- relative viability (NCI-H1623; first compound 0.03162 µM): 0.401
- relative viability (NCI-H1623; first compound 0.1 µM): 0.885
- relative viability (NCI-H1648; first compound 0.003162 µM): 0.395
- relative viability (NCI-H1648; first compound 0.01 µM): 0.389
- relative viability (NCI-H1648; first compound 0.03162 µM): 0.403
- relative viability (NCI-H1648; first compound 0.1 µM): 0.383
- relative viability (NCI-H2087; first compound 0.001 µM): 0.195
- relative viability (NCI-H2087; first compound 0.003162 µM): 0.24
- relative viability (NCI-H2087; first compound 0.01 µM): 0.202
- relative viability (NCI-H2087; first compound 0.03162 µM): 0.19
- relative viability (NCI-H2087; first compound 0.1 µM): 0.197
- relative viability (NCI-H322M; first compound 0.001 µM): 0.471
- relative viability (NCI-H322M; first compound 0.003162 µM): 0.427
- relative viability (NCI-H322M; first compound 0.01 µM): 0.492
- relative viability (NCI-H322M; first compound 0.03162 µM): 0.456
- relative viability (NCI-H322M; first compound 0.1 µM): 0.548
